Results published in article PMC11124387, “A Reliable Multifaceted Solution against Foodborne Viral Infections: The Case of RiLK1 Decapeptide” (Molecules, 2024).
“And” between values parts separate entries of the source, which are not always exact repeats. Equal values may be shown once. Read-outs that look alike come from different tables or passages of the source. Where a SMILES comes first, the peptide text is derived from it.

Experiments:
[1] = tested on: Hepatitis A virus (HAV) strain HM-175; assay: Virucidal effect of peptides on HAV (residual infectivity by TCID50 titration on Frp3 cells); format: cell-based; conditions: for Viral Titre after Treatment: titration on Frp3 cells; for Viral Titre after Treatment / LRV (log reduction value): mean ± SD, triplicate
Description: (§1) Murine norovirus strain 1 (MNV-1) was used as a surrogate for human norovirus (NoV). The virus was replicated in RAW 264.7 cells (murine macrophage cell line) cultured in Dulbecco’s modified Eagle’s medium (DMEM) supplemented with 1% glutamine, 1% non-essential amino acids, and 2% fetal bovine serum (FBS). Hepatitis A virus (HAV) strain HM-175 was replicated in Frp3 cells (non-human primate cell line derived from fetal kidney) cultured in minimum essential medium (MEM) with Earle’s salts supplemented with 1% glutamine, 2% non-essential amino acids, and 2% FBS. Both viruses were incubated in 5% CO2 at 37 °C. All cell culture media were provided by EuroClone (Milan, Italy). The viral suspensions were prepared by freeze and thaw lysis (1 cycle for MNV-1 and 3 cycles for HAV) of infected monolayers, clarified using low-speed centrifugation (800× g) to remove residual cell debris, then divided in aliquots, and stored at −80 °C until use.
(§2) Solutions 40 µM and 80 µM of each peptide of the panel (RiLK1, RiLK3, RiLK30, 1018-K6, MTP1, and AVP2) were chosen for the virucidal tests. HAV and MNV-1 were assayed at a concentration of 4.7 ± 0.2 log TCID50/mL and 4.5 ± 0.2 log TCID50/mL, respectively. The suspensions containing the peptides and viruses were incubated for 1 h at room temperature (RT,20 ± 2 °C) and 4 °C. These temperatures were chosen to simulate the use of sanitizing solutions in food production/processing environments. Residual viral infectivity was evaluated by titration (TCID50/mL) on Frp3 cells for HAV and on RAW 264.7 cells for MNV-1. Untreated HAV and MNV-1 suspensions and 40 µM and 80 µM AMP solutions, incubated at the same conditions, were used as controls. Each treatment condition was assayed in triplicate. For titration, 100 µL of serial tenfold dilutions of each sample were assayed in 24-well tissue culture plates containing 24–48 h cell monolayers and incubated for 1 h in 5% CO2 at 37 °C. After that, the wells were washed twice with 200 µL of PBS, and 500 µL of DMEM/MEM, supplemented with 2% of FBS, were was added to each well; MNV-1 and HAV incubations were carried for up to 6 days and 14 days, respectively, in 5% CO2 at 37 °C with daily visual inspection to determine the cytopathic effect. The virucidal efficacy of AMPs was estimated by comparing the titers of treated and untreated viral suspensions.
(§3) For each treatment, the average and standard deviation of the triplicate analyses were calculated. The virucidal effects of AMPs was assessed by calculating the log reduction value (LRV), i.e., the difference between the infectious titer (log-transformed) of untreated versus treated samples. The statistical significance of differences between treated and untreated samples was determined through one-way analysis of variance (ANOVA) with Bonferroni post hoc comparisons, with a significance level of p < 0.05 (GraphPad Prism v9.5.0, software San Diego, CA, USA).

[2] = pH 2; cited from earlier work
Description: In this context, to acquire important information on how the conformational properties of peptides might influence the structure–function relationships and their distinct membrane interaction profiles, the propensity of the new peptides, RiLK30 and AVP2, to adopt a defined secondary structure and to undergo conformational changes were examined by circular dichroism and fluorescence spectroscopy. These analyses were performed in the presence of a negatively charged SDS that is commonly used as a biomimetic membrane model to study the structural features of membranotropic molecules. In previous ...

[3] = tested on: Murine norovirus strain 1 (MNV-1); format: cell-based; conditions: for Viral Titre after Treatment: titration on RAW 264.7 cells; for Viral Titre after Treatment / LRV (log reduction value): mean ± SD, triplicate
Description: as §1, §2, §3

[4] = format: physicochemical
Description: Circular Dichroism (CD) analysis was performed by a Jasco J-810 spectropolarimeter. The samples were loaded into a quartz cuvette of 0.1 cm path length (Hellma Analytics), and the spectra were recorded in the 195–250 nm range at a scan speed of 20 nm/min, averaging 5 scans. CD experiments were carried out in 10 mM Tris-HCl buffer, pH 7.0, as a function of SDS concentrations (3, 50, and 150 mM) at a peptide concentration of 50 µM. The folding kinetic measurements of the peptides were performed after the addition of SDS (50 mM) to each sample (50 µM in 10 mM Tris-HCl, pH 7.0) up to 24 h of incubation. For thermal stability analyses, the peptides were prepared to a final concentration of 50 μM in 10 mM Tris-HCl, pH 7.0, and then they were incubated at 4 and 25 °C up to 48 h before acquiring the CD spectra in the presence of 50 mM SDS. A blank spectrum of a sample containing all components except the peptide was acquired for the baseline correction of the CD spectra of the peptide. The mean residue ellipticity ([θ], deg cm^2 dmol^−1) was obtained by the equation [θ] = 100 θ/cnl, where θ is the ellipticity (mdeg), c is the peptide concentration (mM), n is the number of residues, and l is the path length (cm).
Tryptophan (Trp) fluorescence emission spectra were recorded at 25 °C on a Shimadzu RF-6000 spectrofluorometer (Kyoto, Japan), with both excitation and emission slit widths set at 5 nm. The intrinsic Trp was excited at a wavelength of 280 nm and the emission was monitored between 300 and 400 nm. Fluorescence measurements were carried out in 10 mM Tris-HCl buffer, pH 7.0, as a function of SDS concentrations (3, 50, and 150 mM) at a peptide concentration of 50 µM. The folding kinetic experiments of AVP2 and RiLK30 were performed after the addition of SDS (50 mM) to each sample (50 µM concentration in 10 mM Tris-HCl buffer, pH 7.0) up to 24 h of incubation. The effect of temperature on peptide folding was analyzed by dissolving the peptides at a final concentration of 50 µM in 10 mM Tris-HCl buffer, pH 7.0, and incubating them at 4 and 25 °C up to 48 h. The spectra were recorded in the presence of 50 mM SDS.

[5] = HAV 4.7 ± 0.2 log TCID50/mL + peptide 80 µM, 1 h at 4 °C
[6] = HAV + peptide 40 µM, 1 h at 4 °C
[7] = HAV + peptide 40 µM, 1 h at 4 °C, untreated minus treated titre
[8] = HAV + peptide 40 µM, 1 h at RT (20 ± 2 °C)
[9] = HAV + peptide 80 µM, 1 h at 4 °C, untreated minus treated titre
[10] = HAV + peptide 80 µM, 1 h at RT (20 ± 2 °C)
[11] = maximum reduction, corresponding to the highest LRV
[12] = MNV-1 4.5 ± 0.2 log TCID50/mL + peptide 80 µM, 1 h at 4 °C
[13] = MNV-1 + peptide 40 µM, 1 h at 4 °C
[14] = MNV-1 + peptide 40 µM, 1 h at RT (20 ± 2 °C)
[15] = MNV-1 + peptide 80 µM, 1 h at 4 °C
[16] = MNV-1 + peptide 80 µM, 1 h at RT (20 ± 2 °C)

Structure (SMILES)	Viral Titre after Treatment [1, 5] [logTCID50/mL]	Viral Titre after Treatment [1, 6] [logTCID50/mL]	LRV (log reduction value) [1, 7] [logTCID50/mL]	LRV (log reduction value) [1, 8] [logTCID50/mL]	Viral Titre after Treatment [1, 8] [logTCID50/mL]	LRV (log reduction value) [1, 9] [logTCID50/mL]	LRV (log reduction value) [1, 10] [logTCID50/mL]	Viral Titre after Treatment [1, 10] [logTCID50/mL]	Viral Titre after Treatment [3, 12] [logTCID50/mL]	LRV (log reduction value) [3, 13] [logTCID50/mL]	Viral Titre after Treatment [3, 13] [logTCID50/mL]	LRV (log reduction value) [3, 14] [logTCID50/mL]	Viral Titre after Treatment [3, 14] [logTCID50/mL]	LRV (log reduction value) [3, 15] [logTCID50/mL]	LRV (log reduction value) [3, 16] [logTCID50/mL]	Viral Titre after Treatment [3, 16] [logTCID50/mL]	other results
CC[C@H](C)[C@H](NC(=O)[C@H](CCCNC(=N)N)NC(=O)[C@@H](NC(=O)[C@H](CCCCN)NC(=O)[C@@H](NC(=O)[C@@H](NC(=O)[C@H](CC(C)C)NC(=O)[C@H](CCCNC(=N)N)NC(=O)[C@@H](N)C(C)C)[C@@H](C)CC)C(C)C)C(C)C)C(=O)N[C@@H](Cc1c[nH]c2ccccc12)C(=O)N[C@@H](CCCNC(=N)N)C(=O)N[C@@H](CCCNC(=N)N)C(N)=O [1018-K6] (H-VRLIVKVRIWRR-NH2; N-terminus assumed)	3.3 ± 0.2	3.4 ± 0.1	1.3 ± 0.3	1.4 ± 0.4	3.3 ± 0.2	1.4 ± 0.4	1.4 ± 0.4	3.3 ± 0.2	4.3 ± 0.2	0 ± 0.3	4.5 ± 0.1	0 ± 0.4	4.5 ± 0.2	0.2 ± 0.4	0.2 ± 0.4	4.3 ± 0.2	decrease of HAV infectious titer [1, 11]: up to 96.7%; infectivity reduction on HAV ([1]; text summary over 40 µM and 80 µM and the two temperatures (4 °C, RT)): 1.3–1.4 log; structural stability [2]: high structural stability; virucidal activity toward MNV-1 (in words) ([3]; 40 and 80 µM, 4 °C and RT): no significant effects
CC[C@H](C)[C@H](NC(=O)[C@H](Cc1cnc[nH]1)NC(=O)[C@H](CCCCN)NC(=O)[C@@H](NC(=O)[C@@H](NC(=O)[C@H](CC(=O)O)NC(=O)[C@H](Cc1ccccc1)NC(=O)[C@H](Cc1c[nH]c2ccccc12)NC(=O)CN)C(C)C)C(C)C)C(=O)N[C@@H](C)C(=O)N[C@@H](CCCCN)C(=O)N[C@@H](CCCNC(=N)N)C(=O)N[C@@H](Cc1ccccc1)C(N)=O [AVP2, reference compound] (H-GWFDVVKHIAKRF-NH2)	–	–	–	–	–	–	–	–	–	–	–	–	–	–	–	–	thermal (conformational) stability in SDS micellar solution ([4]; pH 7): at least 48 h
CC[C@H](C)[C@H](NC(=O)[C@H](Cc1c[nH]cn1)NC(=O)[C@H](CCCCN)NC(=O)[C@@H](NC(=O)[C@@H](NC(=O)[C@H](CC(=O)O)NC(=O)[C@H](Cc1ccccc1)NC(=O)[C@H](Cc1c[nH]c2ccccc12)NC(=O)CN)C(C)C)C(C)C)C(=O)N[C@@H](C)C(=O)N[C@@H](CCCCN)C(=O)N[C@@H](CCCNC(=N)N)C(=O)N[C@@H](Cc1ccccc1)C(N)=O [AVP2, reference compound] (H-GWFDVVKHIAKRF-NH2; N-terminus assumed)	4.3 ± 0.2	4.3 ± 0.2	0.4 ± 0.4	0.4 ± 0.4	4.3 ± 0.2	0.4 ± 0.4	0.7 ± 0.5	4.0 ± 0.3	3.6 ± 0.1	0.9 ± 0.3	3.6 ± 0.1	0.9 ± 0.3	3.6 ± 0.1	0.9 ± 0.3	1.0 ± 0.3	3.5 ± 0.1	virucidal activity toward HAV (in words) ([1]; 40 and 80 µM, 4 °C and RT): limited reduction in infectivity; LRV against MNV-1 ([3]; at both temperatures (4 °C, RT)): 0.9 log and 1.0 log; reduction of MNV-1 infectivity [3, 11]: up to 91.3%; conformational rearrangement over time (CD and fluorescence spectra) ([4]; peptide 50 µM, 10 mM Tris-HCl pH 7.0, SDS 50 mM, 24 h incubation at 37 °C (legend: 25 °C)): did not appear to undergo significant changes
